ChEMBL document CHEMBL1201862, “PubChem BioAssay data set” (2004)
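Step 1: Grow cells in 96-well plates. Step 2: Expose to compound for 48 hours at 5 concentrations. Step 3: Interpolate endpoints linearly; if unreached, use highest concentration. GI50 marks 50% less growth.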 The source made the active and inactive calls. Cut-off read from the data, not from the text of the source: active = GI50 up to about 1.1 µM and inactive = higher.

Key:
Test in all cases: growth of human tumour cells (NCI), 48 h
ACHN = tested on: ACHN
BT-549 = tested on: BT-549
COLO 205 = tested on: COLO 205
EKVX = tested on: EKVX
HL-60 = tested on: HL-60
HOP-62 = tested on: HOP-62
K562 = tested on: K562
MCF7 = tested on: MCF7
MDA-N = tested on: MDA-N
MOLT-4 = tested on: MOLT-4
NCI-H226 = tested on: NCI-H226
NCI-H23 = tested on: NCI-H23
NCI/ADR-RES = tested on: NCI/ADR-RES
SK-MEL-2 = tested on: SK-MEL-2
SNB-19 = tested on: SNB-19
SR = tested on: SR
TK-10 = tested on: TK-10
UACC-62 = tested on: UACC-62
UO-31 = tested on: UO-31
A498 = tested on: A498

Compound | GI50 (ACHN) | GI50 (BT-549) | GI50 (COLO 205) | GI50 (EKVX) | GI50 (HL-60) | GI50 (HOP-62) | GI50 (K562) | GI50 (MCF7) | GI50 (MDA-N) | GI50 (MOLT-4) | GI50 (NCI-H226) | GI50 (NCI-H23) | GI50 (NCI/ADR-RES) | GI50 (SK-MEL-2) | GI50 (SNB-19) | GI50 (SR) | GI50 (TK-10) | GI50 (UACC-62) | GI50 (UO-31) | GI50 (A498)
CC1C(=NO)C(C)C(c2ccccc2)N(N=O)C1c1ccccc1 (configuration not stated) | 20.2 µM (inactive) | 22.9 µM (inactive) | 17.3 µM (inactive) | 22.9 µM (inactive) | 25 µM (inactive) | 19.1 µM (inactive) | 32.7 µM (inactive) | 37.9 µM (inactive) | 20.1 µM (inactive) | 12.2 µM (inactive) | 24.7 µM (inactive) | 24.8 µM (inactive) | 17.5 µM (inactive) | 18.7 µM (inactive) | 18.3 µM (inactive) | 15.5 µM (inactive) | 24.1 µM (inactive) | 13.5 µM (inactive) | 13.3 µM (inactive) | 
COc1ccc(N[C@H](C[S+]([O-])c2ccc(C)cc2)C(F)(F)F)cc1 (some centres not stated) | > 100 µM (inactive) | > 100 µM (inactive) | > 100 µM (inactive) | > 100 µM (inactive) | > 100 µM (inactive) |  | > 100 µM (inactive) | > 100 µM (inactive) | > 100 µM (inactive) | > 100 µM (inactive) | > 100 µM (inactive) | > 100 µM (inactive) | > 100 µM (inactive) | > 100 µM (inactive) | > 100 µM (inactive) | > 100 µM (inactive) | > 100 µM (inactive) | > 100 µM (inactive) | > 100 µM (inactive) | 
COC(=O)C(C)(NC(=O)C(CC(=O)OC(C)(C)C)NC(=O)OC(C)(C)C)c1ccccc1 (configuration not stated) | > 100 µM (inactive) | > 100 µM (inactive) | > 100 µM (inactive) | > 100 µM (inactive) | 81.7 µM (inactive) | > 100 µM (inactive) | > 100 µM (inactive) | 62.1 µM (inactive) | > 100 µM (inactive) | > 100 µM (inactive) | > 100 µM (inactive) | > 100 µM (inactive) | 55.1 µM (inactive) |  | > 100 µM (inactive) | 73.5 µM (inactive) | > 100 µM (inactive) | > 100 µM (inactive) | 26.5 µM (inactive) | 54.3 µM (inactive)
C=C(C)[C@@]1(OC(=O)c2cc([N+](=O)[O-])cc([N+](=O)[O-])c2)C[C@@H]2CCCC[C@@H]21 | > 100 µM (inactive) | > 100 µM (inactive) | 39.2 µM (inactive) | 37.2 µM (inactive) | 95.1 µM (inactive) | 62.4 µM (inactive) | > 100 µM (inactive) | 64 µM (inactive) | > 100 µM (inactive) | > 100 µM (inactive) | > 100 µM (inactive) | > 100 µM (inactive) | > 100 µM (inactive) | 58.3 µM (inactive) | > 100 µM (inactive) | > 100 µM (inactive) | > 100 µM (inactive) | > 100 µM (inactive) | 16.4 µM (inactive) | 
ClCCN1CCC2(CC1)SSC1(CCN(CCCl)CC1)S2 | 40.5 µM (inactive) | 35.8 µM (inactive) | 15.8 µM (inactive) |  | 30.7 µM (inactive) | > 100 µM (inactive) | 37.8 µM (inactive) | 11.6 µM (inactive) | > 100 µM (inactive) | 41.5 µM (inactive) |  | 49.7 µM (inactive) | 49.7 µM (inactive) | > 100 µM (inactive) | 48 µM (inactive) | 7.74 µM (inactive) | 35.9 µM (inactive) | 20.8 µM (inactive) | 65.6 µM (inactive) | 63.4 µM (inactive)
CC(=O)N(CCc1ccccc1)C(C#N)c1ccc(OCCCCCCCCCCOc2ccc(C(C#N)N(CCc3ccccc3)C(C)=O)cc2)cc1 (configuration not stated) | 66.4 µM (inactive) | 33 µM (inactive) | > 100 µM (inactive) | 36.5 µM (inactive) | > 100 µM (inactive) |  | > 100 µM (inactive) | > 100 µM (inactive) | > 100 µM (inactive) | > 100 µM (inactive) | 22 µM (inactive) | 44.9 µM (inactive) | 24.6 µM (inactive) | 47.2 µM (inactive) | 20.5 µM (inactive) |  | 41.2 µM (inactive) | 62.1 µM (inactive) | 62.2 µM (inactive) | 31.3 µM (inactive)
O=C(c1ccc(Cl)cc1)C1OC12C(=O)Nc1ccccc12 (configuration not stated) | 15.1 µM (inactive) | 6.93 µM (inactive) | 2.86 µM (inactive) | 18.1 µM (inactive) | 0.349 µM (active) | 35.1 µM (inactive) | 0.658 µM (active) |  | 3.64 µM (inactive) | 0.569 µM (active) | 20.3 µM (inactive) | 15.5 µM (inactive) |  | 7.6 µM (inactive) | 40.9 µM (inactive) | 0.731 µM (active) | 20.7 µM (inactive) | 14.8 µM (inactive) | 15.8 µM (inactive) | 19.7 µM (inactive)
COc1ccc(C[C@@H](CO)NC2=C(C#N)CCC2)cc1 | 49.9 µM (inactive) | 30.4 µM (inactive) | 43.7 µM (inactive) | 35.7 µM (inactive) | 11 µM (inactive) | 56.5 µM (inactive) | 33.4 µM (inactive) | 26.9 µM (inactive) | 28.6 µM (inactive) | 38.7 µM (inactive) | 48.3 µM (inactive) | 52.4 µM (inactive) | 28.4 µM (inactive) | > 100 µM (inactive) | > 100 µM (inactive) |  | 63.8 µM (inactive) | 31.5 µM (inactive) | 46 µM (inactive) | 31.9 µM (inactive)
CC(=O)Oc1ccc2c(c1)CC[C@@H]1C2[C@@H](O[N+](=O)[O-])C[C@@]2(C)C1CC[C@@H]2O[N+](=O)[O-] (some centres not stated) | 8.69 µM (inactive) | 17.6 µM (inactive) | 16.8 µM (inactive) | 12.3 µM (inactive) | 16.4 µM (inactive) | 6.82 µM (inactive) | 6.5 µM (inactive) | 9.42 µM (inactive) | 14.3 µM (inactive) | 10.4 µM (inactive) |  | 12.7 µM (inactive) | 14.3 µM (inactive) | 15.4 µM (inactive) | 16.9 µM (inactive) | 5.31 µM (inactive) | 19.8 µM (inactive) | 13.9 µM (inactive) | 12.3 µM (inactive) | 18.6 µM (inactive)
C1=C2SSC3=CC=C(SSc4ccc(s4)SSC4=CC=C(SSC(=C1)S2)S4)S3 | > 100 µM (inactive) | > 100 µM (inactive) | > 100 µM (inactive) | > 100 µM (inactive) |  | > 100 µM (inactive) | > 100 µM (inactive) | > 100 µM (inactive) | > 100 µM (inactive) | > 100 µM (inactive) | > 100 µM (inactive) | > 100 µM (inactive) | > 100 µM (inactive) | > 100 µM (inactive) | > 100 µM (inactive) | > 100 µM (inactive) | > 100 µM (inactive) |  | > 100 µM (inactive) | > 100 µM (inactive)
COC(NC(=O)Nc1ccccc1C)(C(F)(F)F)C(F)(F)F | > 100 µM (inactive) | 94.4 µM (inactive) | > 100 µM (inactive) |  | > 100 µM (inactive) | > 100 µM (inactive) | 77.1 µM (inactive) | > 100 µM (inactive) | > 100 µM (inactive) | > 100 µM (inactive) | > 100 µM (inactive) | 81.5 µM (inactive) | > 100 µM (inactive) |  | 44.4 µM (inactive) | > 100 µM (inactive) | > 100 µM (inactive) | 56.6 µM (inactive) | > 100 µM (inactive) | > 100 µM (inactive)
CCCCN(Cc1ccccc1)/C(=N/C#N)N(Cc1ccccc1)Cc1ccccc1 | 12.1 µM (inactive) | 19.2 µM (inactive) | 15.7 µM (inactive) | 31.3 µM (inactive) | 36.6 µM (inactive) | 26.1 µM (inactive) | 14 µM (inactive) | 16.1 µM (inactive) | 14.2 µM (inactive) | > 100 µM (inactive) | 23.1 µM (inactive) | 11.3 µM (inactive) | 18.7 µM (inactive) | 13.1 µM (inactive) | 20.7 µM (inactive) |  | 38.1 µM (inactive) | 16.1 µM (inactive) | 14.6 µM (inactive) | 36.6 µM (inactive)
CN(CCNC(=O)c1nn(-c2ccccc2)c2c1ccc1ccccc12)CCNC(=O)c1nn(-c2ccccc2)c2c1ccc1ccccc12 | 2.11 µM (inactive) | 10.2 µM (inactive) | 1.54 µM (inactive) | 1.98 µM (inactive) | 1.95 µM (inactive) | 1.43 µM (inactive) |  | 1.98 µM (inactive) | 1.75 µM (inactive) | 0.38 µM (active) | 2.29 µM (inactive) | 2.51 µM (inactive) | 2.55 µM (inactive) | 1.86 µM (inactive) | 2.54 µM (inactive) |  | 1.4 µM (inactive) | 1.77 µM (inactive) | 2.07 µM (inactive) | 2 µM (inactive)
CCC/C(=N\NC(=S)N1CCN(c2ccccn2)CC1)c1ccccn1 | 0.0207 µM (active) | 0.0212 µM (active) | 0.00508 µM (active) | 0.00729 µM (active) | < 0.001 µM (active) | 0.141 µM (active) | 0.00117 µM (active) | 0.00457 µM (active) | 0.157 µM (active) |  | 1.06 µM (active) | 0.00881 µM (active) |  | 0.115 µM (active) | 0.0142 µM (active) | 0.00191 µM (active) | 0.335 µM (active) | 0.0036 µM (active) | 0.0702 µM (active) | 0.541 µM (active)
CCCCc1ccc(Nc2nc(SC)c3[nH]cnc3n2)cc1 | 12.7 µM (inactive) | > 100 µM (inactive) | > 91.2 µM (inactive) | 24.9 µM (inactive) | 3.43 µM (inactive) | 10.2 µM (inactive) | 3.61 µM (inactive) | > 24.4 µM (inactive) |  | 2.81 µM (inactive) | > 73.6 µM (inactive) | 28.6 µM (inactive) | 23.6 µM (inactive) | > 38.5 µM (inactive) | 36.6 µM (inactive) | 2.01 µM (inactive) | 45.2 µM (inactive) | 45.5 µM (inactive) | > 78.2 µM (inactive) | 18.7 µM (inactive)
